Experimental data from publication doi:10.1101/2022.02.04.479134, “A Suite of TMPRSS2 Assays for Screening Drug Repurposing Candidates as Potential Treatments of COVID-19” (bioRxiv, 2022).
Entries after “also recorded” stand apart in the source; their conditions may differ. Where a name gives a salt, the structure may show the parent alone. Read-outs that look alike come from different tables or passages of the source.

Tests used:
[1] = Fluorescence counterassay (AMC quenching); details: 1 μM AMC; for Biochemical (fluorogenic counterassay) Max Response: 0% = 1 μM AMC, −100% = 0.1 μM AMC, <0% = quenching
Procedure: Assay buffer (50 mM Tris pH 8, 150 mM NaCl, 0.01% Tween20) was added to the full plate to give a total reaction volume of 5 μL. Detection was done using the PHERAstar with 340 nm excitation and 440 nm emission. Fluorescence was normalized relative to a negative control containing 7-amino-4-methylcoumarin at 0.1 μM (−100% activity, low fluorescence) and a positive control containing 7-amino-4-methylcoumarin at 1 μM (0% activity, high fluorescence).

Calu-3 cells [2] = details: for AC50: read-out: Calu-3 (cytotoxicity) AC50, N/D = Not Detected
[3] = target: T1, Recombinant Human TMPRSS2 (Homo sapiens, UniProt O15393); assay: biochemical; format: biochemical; details: for AC50: 10 μM Boc-QAR-AMC, 0.175 μM TMPRSS2, 1 h RT, 11-point dose-response in triplicate, read-out: Biochemical (fluorogenic) AC50
T1 sequence (O15393 106-492): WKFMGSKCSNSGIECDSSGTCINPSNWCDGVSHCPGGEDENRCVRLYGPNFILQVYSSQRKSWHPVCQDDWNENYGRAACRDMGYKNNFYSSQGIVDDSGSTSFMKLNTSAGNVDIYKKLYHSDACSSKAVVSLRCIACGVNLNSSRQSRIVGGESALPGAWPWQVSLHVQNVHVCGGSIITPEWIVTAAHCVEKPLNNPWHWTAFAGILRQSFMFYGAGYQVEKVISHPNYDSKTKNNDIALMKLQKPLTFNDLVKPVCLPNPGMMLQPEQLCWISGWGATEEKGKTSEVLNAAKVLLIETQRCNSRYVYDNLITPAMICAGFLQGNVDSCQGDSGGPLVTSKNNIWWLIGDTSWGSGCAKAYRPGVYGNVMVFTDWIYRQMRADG
Procedure: Buffer conditions were tested and optimized to include: 50 mM Tris pH 8, 150 mM NaCl and 0.01% Tween20.
Following 1 h of incubation at RT, detection was done using the PHERAstar with 340 nm excitation and 440 nm emission (Table 1).
To determine compound activity in the assay, the concentration–response data for each sample was plotted and modeled by a four-parameter logistic fit yielding IC50 and maximal response values. […] Data normalization, visualization, and curve fitting were performed using Prism (GraphPad, San Diego, CA).

[4] = target: T1, Recombinant Human TMPRSS2; assay: biochemical; format: biochemical; details: for AC50: 10 μM peptide, 0.4 μM TMPRSS2, 1 h RT, N/D = Not Detected, read-out: Biochemical (mass spectrometry) AC50; for IC50: biochemical assay not given, matches mass spectrometry values, read-out: IC50 inhibition of TMPRSS2
recombinant TMPRSS2 = details: fluorogenic peptide substrate; cited from earlier work
Calu-3 cells [5] = details: cited from earlier work
in vitro = details: human
[6] = system: H1N1 and H3N2 influenza virus strains; details: Calu-3 cells; cited from earlier work

Which results are given for CN(C(=O)C(Cl)Cl)c1ccc(OC(=O)c2ccco2)cc1 [Diloxanide furoate]?
Biochemical (fluorogenic counterassay) Max Response [1]: -3.2%; Calu-3 (cytotoxicity) Max Response (Calu-3 cells [2]; ATP content, no PP): 0%; AC50 [3]: 11.1 µM; AC50 [4]: 21.7 µM

Which “Biochemical (fluorogenic counterassay) Max Response” value (“Biochemical” below) [1] does the source give for Dibromopropamidine Dihydrochloride here?
Its value is 87%.

What about the “Calu-3 (cytotoxicity) Max Response” value (Calu-3 cells [2]; ATP content, no PP) of the same molecule?
The value was -85%.

What about the AC50 (Calu-3 cells [2]; ATP content, no PP) of the same molecule?
The AC50 was 25.1 µM.

What about the AC50 [3] of the same molecule?
Its AC50 is 4.4 µM.

What about the AC50 [4] of the same molecule?
The AC50 was 4.34 µM.

For COC[C@H]1C[C@@H](c2ncc(-c3ccc4c(c3)COc3cc5c(ccc6nc([C@@H]7CC[C@H](C)N7C(=O)[C@@H](NC(=O)OC)C(C)C)[nH]c65)cc3-4)[nH]2)N(C(=O)[C@H](NC(=O)OC)c2ccccc2)C1 [Velpatasvir], which “Biochemical” value [1] is on record?
Its value is 442%.

What about the “Calu-3 (cytotoxicity) Max Response” value (Calu-3 cells [2]; ATP content, no PP) of the same molecule?
Its value is 0%.

And the AC50 [3]?
The AC50 was 14.7 µM.

What about the AC50 [4] of the same molecule?
The AC50 was 13.2 µM.

Which “Biochemical” value [1] does the source give for NCCc1ccc(S(=O)(=O)F)cc1 [4-(2-aminoethyl)benzenesulfonyl fluoride] here?
Its value is 23%.

And the “Calu-3 (cytotoxicity) Max Response” value (Calu-3 cells [2]; ATP content, no PP)?
The value was 0%.

Which results are given for N=C(N)c1ccc2nc(-c3cc(CC(=O)N[C@@H](CC(=O)O)C(=O)O)cc(-c4cc(S(N)(=O)=O)ccc4O)c3O)[nH]c2c1 [PCI-27483]?
Biochemical (fluorogenic counterassay) Max Response [1]: 61.3%; Calu-3 (cytotoxicity) Max Response (Calu-3 cells [2]; ATP content, no PP): 0%; AC50 [3]: 1.8 µM; AC50 [4]: 1.4 µM

With N=C(N)c1cccc(CC(NS(=O)(=O)c2cccc(-c3ccc(Cl)cc3Cl)c2)C(=O)N2CCC(NC(=O)NC3CCCCC3)CC2)c1 (stereo not shown) [Cmpd 114 (Meyer)] as the molecule, how does the Ki (recombinant TMPRSS2) read?
The Ki was 0.005 µM.

And the “Biochemical” value [1]?
Its value is -6.2%.

What about the “Calu-3 (cytotoxicity) Max Response” value (Calu-3 cells [2]; ATP content, no PP) of the same molecule?
The value was 0%.

What about the AC50 [3] of the same molecule?
Its AC50 is 0.57 µM.

What about the “cytotoxicity within Calu-3 cells” value (Calu-3 cells [5]) of the same molecule?
The value was “not cytotoxic”.

What about the AC50 [4] of the same molecule?
The AC50 was 0.26 µM.

What about the IC50 [4] of the same molecule?
The IC50 was about 0.3 µM.

Which results are given for Marizomib / Salinosporamide A?
Biochemical (fluorogenic counterassay) Max Response [1]: 2.2%; Calu-3 (cytotoxicity) Max Response (Calu-3 cells [2]; ATP content, no PP): -98%; AC50 (Calu-3 cells [2]; ATP content, no PP): 0.1 µM; AC50 [3]: 14.7 µM; AC50 [4]: 22.9 µM

Which “quenching of the AMC fluorescent signal” value [1] does the source give for tannic acid here?
The value was ~ 30%.

For O=c1ccc2ccc(O)cc2o1 [7-Hydroxycoumarin], which “Biochemical” value [1] is on record?
The value was 1373%.

And the “Calu-3 (cytotoxicity) Max Response” value (Calu-3 cells [2]; ATP content, no PP)?
The value was 0%.

What about the AC50 [3] of the same molecule?
The AC50 was 8.62 µM.

And the “inhibition of TMPRSS2 in the fluorogenic assay” value ([3]; at 40 μM)?
The value was “nearly full inhibition”.

What about the “inhibition of TMPRSS2 in the mass spectrometry detection assay” value ([4]; dose-response) of the same molecule?
Its value is “no inhibition detected; also recorded: did not show inhibition”.

Which “Biochemical” value [1] does the source give for CCOC(=O)c1cc(=O)c2c(OCC(COc3cccc4oc(C(=O)OCC)cc(=O)c34)OC(=O)[C@@H](N)CCCCN)cccc2o1 [Cromoglicate lisetil] here?
Its value is -1.4%.

What about the “Calu-3 (cytotoxicity) Max Response” value (Calu-3 cells [2]; ATP content, no PP) of the same molecule?
Its value is 0%.

And the AC50 [3]?
The AC50 was 16.5 µM.

And the AC50 [4]?
The AC50 was 25.1 µM.

Which results are given for CC(C)C[C@H](NC(=O)[C@H](Cc1ccccc1)NC(=O)c1cnccn1)B(O)O [Bortezomib]?
Biochemical (fluorogenic counterassay) Max Response [1]: 4.6%; Calu-3 (cytotoxicity) Max Response (Calu-3 cells [2]; ATP content, no PP): -97%; cytotoxicity towards Calu-3 cells (Calu-3 cells [2]; cytotoxicity counter-assay): high cytotoxicity; AC50 [3]: 11.4 µM; AC50 [4]: 9.77 µM; AC50 (in vitro): 0.29 µM

Which results are given for Nc1nc2ncc(CNc3ccc(C(=O)N[C@@H](CCC(=O)O)C(=O)O)cc3)nc2c(=O)[nH]1 [Folic Acid]?
Biochemical (fluorogenic counterassay) Max Response [1]: 14.5%; Calu-3 (cytotoxicity) Max Response (Calu-3 cells [2]; ATP content, no PP): 0%; AC50 [3]: 13.3 µM

For N=C(N)c1cccc(CC(NS(=O)(=O)c2cccc(-c3ccc(Cl)cc3Cl)c2)C(=O)N2CCC(CCN)CC2)c1 (stereo not shown) [Cmpd 92 (Meyer)], which Ki (recombinant TMPRSS2) is on record?
Its Ki is 0.0009 µM.

And the “Biochemical” value [1]?
The value was -5.6%.

What about the “Calu-3 (cytotoxicity) Max Response” value (Calu-3 cells [2]; ATP content, no PP) of the same molecule?
Its value is 0%.

And the AC50 [3]?
The AC50 was 0.41 µM.

And the “cytotoxicity within Calu-3 cells” value (Calu-3 cells [5])?
Its value is “not cytotoxic”.

And the AC50 [4]?
Its AC50 is 0.28 µM.

And the IC50 [4]?
The IC50 was about 0.3 µM.

What about the “replication of H1N1 and H3N2 influenza virus strains” value [6] of the same molecule?
Its value is “significantly reduced”.

With COC(=O)N[C@H](C(=O)N1CCC[C@H]1c1nc(-c2ccc(-c3ccc(-c4c[nH]c([C@@H]5CCCN5C(=O)[C@@H](NC(=O)OC)C(C)C)n4)cc3)cc2)c[nH]1)C(C)C [Daclatasvir dihydrochloride] as the molecule, how does the “Biochemical” value [1] read?
Its value is 447%.

What about the “Calu-3 (cytotoxicity) Max Response” value (Calu-3 cells [2]; ATP content, no PP) of the same molecule?
The value was 0%.

And the AC50 [3]?
The AC50 was 13.3 µM.

With NC[C@H]1CC[C@H](C(=O)Oc2ccc(CCC(=O)O)cc2)CC1 [Cetraxate HCl] as the molecule, how does the “Biochemical” value [1] read?
The value was 2.7%.

What about the “Calu-3 (cytotoxicity) Max Response” value (Calu-3 cells [2]; ATP content, no PP) of the same molecule?
Its value is 0%.

And the AC50 [3]?
The AC50 was 2.34 µM.

What about the AC50 [4] of the same molecule?
Its AC50 is 5.52 µM.

With CCOC(=O)c1ccc(OC(=O)CCCCCNC(=N)N)cc1 [Gabexate mesilate] as the molecule, how does the “Biochemical” value [1] read?
Its value is 17.4%.

What about the “Calu-3 (cytotoxicity) Max Response” value (Calu-3 cells [2]; ATP content, no PP) of the same molecule?
Its value is 0%.

With CN(C)C(=O)COC(=O)Cc1ccc(OC(=O)c2ccc(NC(=N)N)cc2)cc1 [Camostat] as the molecule, how does the “Biochemical” value [1] read?
The value was -5%.

What about the “Calu-3 (cytotoxicity) Max Response” value (Calu-3 cells [2]; ATP content, no PP) of the same molecule?
Its value is 0%.

Which “Biochemical” value [1] does the source give for N=C(N)c1ccc2cc(OC(=O)c3ccc(N=C(N)N)cc3)ccc2c1 [Nafamostat mesilate] here?
The value was -1.9%.

And the “Calu-3 (cytotoxicity) Max Response” value (Calu-3 cells [2]; ATP content, no PP)?
The value was 0%.

For O=c1ccn([C@H]2C[C@H](O)[C@@H](CO)O2)c(=O)[nH]1 [Deoxyuridine], which “Biochemical” value [1] is on record?
Its value is 19.3%.

What about the “Calu-3 (cytotoxicity) Max Response” value (Calu-3 cells [2]; ATP content, no PP) of the same molecule?
Its value is 0%.

And the AC50 [3]?
The AC50 was 16 µM.

Which results are given for CC(=O)N[C@@H](CC(C)C)C(=O)N[C@@H](CC(C)C)C(=O)N[C@H](C=O)CCCNC(=N)N [Leupeptin]?
Biochemical (fluorogenic counterassay) Max Response [1]: 0.5%; Calu-3 (cytotoxicity) Max Response (Calu-3 cells [2]; ATP content, no PP): 0%; AC50 [3]: 1.58 µM; AC50 [4]: 0.72 µM

Which “Biochemical” value [1] does the source give for O=S(=O)(F)Cc1ccccc1 [Phenylmethanesulfonyl fluoride (PMSF), Phenylmethanesulfonyl fluoride] here?
Its value is -2.8%.

What about the “Calu-3 (cytotoxicity) Max Response” value (Calu-3 cells [2]; ATP content, no PP) of the same molecule?
Its value is 0%.

For N=C(N)c1ccc(OCCCCCOc2ccc(C(=N)N)cc2)cc1 [Pentamidine isethionate], which “Biochemical” value [1] is on record?
Its value is -0.05%.

What about the AC50 [3] of the same molecule?
The AC50 was 9.49 µM.

And the AC50 [4]?
The AC50 was 7.6 µM.

And the AC50 (in vitro)?
Its AC50 is 18.6 µM.

Which “Biochemical” value [1] does the source give for “Hydroxystilbamidine bis(methanesulfonate)” here?
The value was -6.4%.

What about the “Calu-3 (cytotoxicity) Max Response” value (Calu-3 cells [2]) of the same molecule?
Its value is 0%.

What about the AC50 [3] of the same molecule?
Its AC50 is 3.03 µM.

What about the AC50 [4] of the same molecule?
Its AC50 is 2.31 µM.

What does the source list for G-007-LK?
Biochemical (fluorogenic counterassay) Max Response [1]: 424%; Calu-3 (cytotoxicity) Max Response (Calu-3 cells [2]; ATP content, no PP): 0%; AC50 [3]: 14.7 µM

Which results are given for COC(=O)[C@H](Cc1cccc(C(=N)N)c1)[C@@H](C)NC(=O)c1ccc(-c2cc[n+]([O-])cc2)cc1 [Otamixaban]?
Biochemical (fluorogenic counterassay) Max Response [1]: -1%; Calu-3 (cytotoxicity) Max Response (Calu-3 cells [2]; ATP content, no PP): 0%

With N=C(N)NC(=O)c1nc(Cl)c(N)nc1N [Amiloride HCl] as the molecule, how does the “Biochemical” value [1] read?
The value was 26.6%.

And the “Calu-3 (cytotoxicity) Max Response” value (Calu-3 cells [2]; ATP content, no PP)?
Its value is 0%.

What about the AC50 [3] of the same molecule?
The AC50 was 8.29 µM.

And the AC50 [4]?
Its AC50 is 9 µM.

For AGN194310, which “Biochemical” value [1] is on record?
Its value is -9.2%.

What about the “Calu-3 (cytotoxicity) Max Response” value (Calu-3 cells [2]; ATP content, no PP) of the same molecule?
Its value is 0%.

And the AC50 [3]?
Its AC50 is 7.9 µM.
